In the oligonucleotide strings, read from the 5' end, every base follows the letter of its sugar. An asterisk marks phosphorothioate; unmarked linkages are phosphodiester. Other units and linkages are bracketed, terminal groups are in braces. A string of capitals states the bases alone. m = 2'-O-methyl
Tests used:
[1] = target: T1, TLR8 (Homo sapiens, UniProt Q9NR97); assay: HEK-TLR8 NF-κB-luciferase reporter, R848 or Motolimod stimulation (potentiation or inhibition); type: cell-based; design: expressed in transfected cells; host or cells: 293XLhTLR8 (HEK293); settings: for TLR8 HEK 5 uM: 3mer 2'OMe ASO at 5 uM, value relative to Ligand only = 1.000, NT = 0.000; for TLR8 100 nM (averaged NF-κB-Luciferase level relative to R848 condition, fold increase): ASO 100 nM; for TLR8 100 nM (averaged NF-κB-Luciferase level relative to R848 condition, fold increase) / TLR8 500 nM (averaged NF-κB-Luciferase level relative to R848 condition, fold increase): relative to R848 only; for TLR8 500 nM (averaged NF-κB-Luciferase level relative to R848 condition, fold increase): ASO 500 nM
T1 sequence (Q9NR97 27-1041): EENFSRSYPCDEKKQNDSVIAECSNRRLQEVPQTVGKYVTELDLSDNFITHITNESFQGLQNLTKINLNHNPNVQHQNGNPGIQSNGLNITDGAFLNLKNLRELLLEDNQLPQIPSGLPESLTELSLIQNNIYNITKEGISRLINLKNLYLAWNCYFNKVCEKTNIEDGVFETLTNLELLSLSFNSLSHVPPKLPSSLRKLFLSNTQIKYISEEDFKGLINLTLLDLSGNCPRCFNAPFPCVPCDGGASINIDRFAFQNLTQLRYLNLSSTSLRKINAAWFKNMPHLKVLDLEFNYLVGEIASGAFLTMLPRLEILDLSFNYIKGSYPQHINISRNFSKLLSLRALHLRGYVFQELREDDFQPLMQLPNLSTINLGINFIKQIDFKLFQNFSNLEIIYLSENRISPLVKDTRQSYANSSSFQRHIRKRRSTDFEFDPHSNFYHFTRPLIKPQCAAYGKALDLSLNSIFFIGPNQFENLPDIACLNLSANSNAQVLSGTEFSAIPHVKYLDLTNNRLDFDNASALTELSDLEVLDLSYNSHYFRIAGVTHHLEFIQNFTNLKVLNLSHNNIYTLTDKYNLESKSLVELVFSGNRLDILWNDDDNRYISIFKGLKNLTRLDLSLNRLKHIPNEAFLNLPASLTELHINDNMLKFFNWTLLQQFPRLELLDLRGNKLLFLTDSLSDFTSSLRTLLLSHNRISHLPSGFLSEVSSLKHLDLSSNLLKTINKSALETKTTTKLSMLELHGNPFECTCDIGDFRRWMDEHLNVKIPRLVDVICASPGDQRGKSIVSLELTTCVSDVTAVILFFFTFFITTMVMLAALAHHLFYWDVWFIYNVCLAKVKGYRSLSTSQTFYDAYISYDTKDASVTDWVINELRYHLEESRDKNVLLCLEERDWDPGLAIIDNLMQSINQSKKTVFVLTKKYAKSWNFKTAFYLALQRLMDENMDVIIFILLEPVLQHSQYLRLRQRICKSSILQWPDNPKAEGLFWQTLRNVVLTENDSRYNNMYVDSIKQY
Protocol: (§1) In such examples, potentiation of TLR8 activity can be identified by observation of an overall increased TLR8 response of the cell population, or a higher proportion of cells having TLR8-positive activity as compared to a negative control condition in which cells are treated with TLR8 agonist in the absence of the oligonucleotide (or in the presence of an appropriate control non-potentiating agent). In one example, 293XLhTLR8 (referred to as HEK-TLR8) cells are transfected with pNF-κB-Luc4 reporter, incubated with an oligonucleotide, and then stimulated with R848. TLR8 activity can be determined by a luciferase assay, which measures activated NF-κB by luminescence. TLR8 activity can also be analysed by measuring cytokine levels, for example by ELISA.
as §1, with “inhibition” for “potentiation”, “decreased” for “increased”, “lower” for “higher”, “positive” for “negative”, “inhibitory” for “non-potentiating”
For cGAS stimulations, cells were treated for indicated duration with ASOs, prior to transfection with ISD70 (human cells) or ISD45 (mouse cells) (the ASOs were not washed off prior to ISD transfection unless otherwise indicated). The cGAS ligands ISD45 (Stetson and Medzhitov, 2006) and ISD70 (also known as VACV-70 (Unterholzner et al., 2010)) (Table 1) were resuspended as follows: 5 1d of sense and 5 μl of antisense strands at 10 μg/μl were added to 90 μl PBS under sterile conditions, heated at 75° C. for 30 min, prior to letting cool down at room temperature and aliquoting (stock at 1 μg/1 l). The ISDs were transfected at a concentration of […] at a ratio of 1 μg:1 μl with Lipofectamine 2000 in Opti-MEM (Thermo Fisher Scientific). HEK-TLR3, HEK-TLR7 and […] were treated with indicated concentration of ASOs for 20-50 min, prior to stimulation with poly(I:C) (Invivogen), R848 (Invivogen), Motolimod (MedChemExpress) and the Class B CpG oligonucleotides ODN 2006 (synthesised by IDT and resuspended in RNase-free TE buffer [Table 1]), respectively. The TLR2/1 agonist PAM3CSK4 (Invivogen), the TLR4 agonist lipopolysaccharide (Invivogen), the Class B CpG oligonucleotides ODN 1826 (synthesised by IDT and resuspended in RNase-free TE buffer), the mouse Sting agonist DMXAA (Cayman) and the human STING agonist (compound #3 from (Raanjulu et al., 2018), referred to as GSK herein—kind gift from Cancer Therapeutics CRC, Australia) were used at indicated concentrations. Aspirin (Sigma—A2093) was resuspended in pure medium to 10 mM, filter sterilised and added to the cells at 2 mM final. All ASOs were synthesised by Integrated DNA Technologies (IDT), and resuspended in RNase-free TE buffer, pH 8.0 (Thermo Fisher Scientific). Cell viability was assessed by adding 1× fresh resazurin solution to the wells (10λ solution made up with 7 mg resazurin [Sigma—R7017] dissolved in 3.5 ml PBS, sterile filtered at […]) for 4 h, prior to reading at with a Fluostar OPTIMA (BMG LABTECH) plate-reader (fluorescence: Excitation 535 nm, Emission 590); wells with medium only and 1× resazurin were used as blanks.

[2] = target: T1, TLR8; assay: R848-driven IP-10 production in THP-1 cells (TLR8); type: cell-based; design: expressed in transfected cells; settings: 3mer 2'OMe ASO at 1 uM; raw values, Ligand only = 355.752, NT = 134.831;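 note: IP-10 by ELISA in supernatant after 7 h R848 stimulation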

Substance	TLR8 HEK 5 uM [1]	TLR8 1 uM [2]	TLR8 100 nM (averaged NF-κB-Luciferase level relative to R848 condition, fold increase) [1]	TLR8 500 nM (averaged NF-κB-Luciferase level relative to R848 condition, fold increase) [1]
AAU (antisense mA*mA*mU)	0.807	202.802	–	–
ACU (antisense mA*mC*mU)	0.896	250.907	–	–
AGU (antisense mA*mG*mU)	1.329	270.256	–	–
AUA (antisense mA*mU*mA)	0.812	157.293	–	–
AUG (mA*mU*mG)	0.828	151.847	–	–
AUU (mA*mU*mU)	0.762	274.683	–	–
CAU (mC*mA*mU)	0.752	388.191	–	–
CCU (mC*mC*mU)	0.613	332.524	–	–
CGU (mC*mG*mU)	1.327	346.350	–	–
CUA (mC*mU*mA)	0.642	243.564	–	–
CUC (mC*mU*mC)	0.685	245.566	–	–
CUG (mC*mU*mG)	1.074	264.072	–	–
GCU (mG*mC*mU)	0.810	193.279	–	–
GGU (mG*mG*mU)	1.380	274.989	–	–
TTCGTGGGGTCCTTTT (antisense; LNA-modified, pattern not given here) [HPRT LNA-661 V1]	–	–	0.621	3.144
TTTTGGCTGGGATCAA (antisense; LNA-modified, pattern not given here) [CAMSAP1-4697 LNA KL]	–	–	0.542	1.412
UAA (mU*mA*mA)	0.907	224.188	–	–
UAC (mU*mA*mC)	0.813	254.486	–	–

Substance	TLR8 HEK 5 uM [1]	TLR8 1 uM [2]	TLR8 100 nM (averaged NF-κB-Luciferase level relative to R848 condition, fold increase) [1]	TLR8 500 nM (averaged NF-κB-Luciferase level relative to R848 condition, fold increase) [1]
UAG (mU*mA*mG)	1.443	226.441	–	–
UAU (mU*mA*mU)	0.887	213.758	–	–
UCC (mU*mC*mC)	1.292	346.575	–	–
UCU (mU*mC*mU)	1.414	371.961	–	–
UGC (mU*mG*mC)	1.032	278.054	–	–
UGU (mU*mG*mU)	1.120	331.923	–	–
UUA (mU*mU*mA)	1.060	350.207	–	–
UUC (mU*mU*mC)	0.968	213.878	–	–
UUG (listed as RNA, chemistry not fully specified)	1.071	347.573	–	–
UUU (mU*mU*mU)	0.870	307.213	–	–
dA*dA*dA (DNA AAA; listed as DNA, chemistry not fully specified)	0.859	225.029	–	–
dA*dA*dC (DNA AAC; listed as DNA, chemistry not fully specified)	0.696	218.889	–	–
dA*dA*dG (DNA AAG; listed as DNA, chemistry not fully specified)	0.858	179.302	–	–
dA*dC*dA (DNA ACA; listed as RNA, chemistry not fully specified)	0.841	262.630	–	–
dA*dG*dA (DNA AGA; listed as DNA, chemistry not fully specified)	1.520	214.450	–	–
dA*dG*dC (DNA AGC; listed as DNA, chemistry not fully specified)	1.411	267.225	–	–
dC*dA*dA (CAA; listed as DNA, chemistry not fully specified)	0.811	373.157	–	–

From patent US20240384268A1, “Oligonucleotides” (Hudson Institute of Medical Research, priority 2021, published 2024)
